Assays:
[1] = ATP-dependent transport of CLF into control wild type Sf21 membrane vesicles; assay type: biochemical
Method: (§1) The production of recombinant baculovirus was as described by de Waart et al. [Liver Int 2006 April; 26(3):362-368]. ABCC3 and ABCG2-recombinant baculovirus were a kind gift from Borst [Breedveld P. et al., Cancer Res 2004 Aug. 15; 64(16):5804-5811 and Borst P. et al., J Biol Chem 2001 Dec. 7; 276(49):46400-46407.]. ABCB11-recombinant baculovirus was a kind gift from Thompson [Thompson R J et al., Gastroenterology 2002 November; 123(5):1649-1658]. Sf21 cells grown at 27° C. were infected with ABCB11, ABCC2, ABCC3 and ABCG2-cDNA containing baculovirus. Cells were harvested at 2-4 days after infection. Membrane vesicle preparation was as described by de Waart et al. [Liver Int 2006 April; 26(3):362-368].
(§2) Transport studies with membrane vesicles were performed using the rapid filtration technique as described by Heijn M et al. [Am J Physiol 1992 January; 262(1 Pt 1):C104-C110]. Radiolabel was measured with a scintillation counter. When CLF was used as a probe, filters were placed in a glass tube, 0.1% Triton-X-100 was added and the tubes vortexed. Samples were pipetted in 96-well plates (Kartell, Noviglio, Italy) and the amount CLF quantitated by measurement of fluorescence at λexe 485 nm and λcm 520 nm using a NovoStar (BMG-labtech, Offenburg, Germany).

ABCB11 = biological target: T1, ABCB11 (Homo sapiens, UniProt O95342); test: CLF inhibition of TC transport into ABCB11 containing Sf21 membrane vesicles; assay type: biochemical; settings: ATP-dependent transport, read-out: concentration of CLF at which half maximal TC transport was observed
T1 construct: His tag (inferred from the anti-his probe used on the Western blot); made in house; host or cells: Sf21 insect cells, baculovirus (gift from Thompson); plasma membrane vesicles
T1 sequence (O95342 whole entry): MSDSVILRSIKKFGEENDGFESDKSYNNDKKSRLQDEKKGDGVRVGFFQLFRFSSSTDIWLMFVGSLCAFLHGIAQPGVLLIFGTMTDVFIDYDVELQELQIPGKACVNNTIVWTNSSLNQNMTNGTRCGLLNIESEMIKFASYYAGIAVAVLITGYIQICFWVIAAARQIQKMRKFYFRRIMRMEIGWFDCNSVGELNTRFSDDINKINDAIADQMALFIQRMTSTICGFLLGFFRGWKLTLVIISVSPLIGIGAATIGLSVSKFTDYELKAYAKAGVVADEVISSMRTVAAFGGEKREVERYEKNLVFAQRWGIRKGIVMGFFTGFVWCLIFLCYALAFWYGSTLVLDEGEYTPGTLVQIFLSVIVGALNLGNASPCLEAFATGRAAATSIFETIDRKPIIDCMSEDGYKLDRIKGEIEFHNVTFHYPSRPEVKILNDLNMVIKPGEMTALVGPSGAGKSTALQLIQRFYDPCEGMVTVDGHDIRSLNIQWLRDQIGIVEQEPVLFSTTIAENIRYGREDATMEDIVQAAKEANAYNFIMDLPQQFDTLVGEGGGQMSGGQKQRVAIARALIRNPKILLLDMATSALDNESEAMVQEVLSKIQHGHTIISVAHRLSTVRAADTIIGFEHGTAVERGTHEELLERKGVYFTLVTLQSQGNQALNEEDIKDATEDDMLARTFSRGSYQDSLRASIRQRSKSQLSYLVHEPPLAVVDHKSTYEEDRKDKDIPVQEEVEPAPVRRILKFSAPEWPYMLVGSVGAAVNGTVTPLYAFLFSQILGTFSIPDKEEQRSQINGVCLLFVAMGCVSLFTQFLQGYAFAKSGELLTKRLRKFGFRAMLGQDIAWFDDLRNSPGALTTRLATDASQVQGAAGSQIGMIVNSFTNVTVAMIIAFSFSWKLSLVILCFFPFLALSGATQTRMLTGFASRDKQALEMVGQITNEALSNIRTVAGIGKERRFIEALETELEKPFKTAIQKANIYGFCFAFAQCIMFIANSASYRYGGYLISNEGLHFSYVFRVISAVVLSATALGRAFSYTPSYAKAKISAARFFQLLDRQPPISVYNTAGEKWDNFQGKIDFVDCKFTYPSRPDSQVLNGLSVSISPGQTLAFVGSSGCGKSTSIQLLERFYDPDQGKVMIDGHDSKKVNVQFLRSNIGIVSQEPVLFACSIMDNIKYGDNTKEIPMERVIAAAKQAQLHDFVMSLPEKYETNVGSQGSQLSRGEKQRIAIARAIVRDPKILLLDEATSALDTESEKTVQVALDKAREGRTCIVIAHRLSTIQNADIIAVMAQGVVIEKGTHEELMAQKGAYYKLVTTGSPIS
Method: FIGS. 5A and 5B show CLF inhibition of DNP-SG and TC transport into ABCC2 (A) and ABCB11 (B) protein containing Sf21 membrane vesicles respectively. The values are expressed as a percentage of maximal ATP-dependent transport. Significance was tested using two-sided Student's t-test: *P<0.05 for transport in the presence vs. absence of inhibitor.
as §1, with “Membrane vesicle preparation was as described by de Waart et al. [Liver Int 2006 April; 26(3):362-368].” left out
as §2, with “When CLF was used as a probe, filters were placed in a glass tube, 0.1% Triton-X-100 was added and the tubes vortexed.” left out

ABCG2 = biological target: T2, ABCG2 (Homo sapiens, UniProt Q9UNQ0); test: ATP-dependent transport of CLF into Sf21 membrane vesicles containing ABCG2; assay type: biochemical; settings: compared with control vesicles
T2 construct: made in house; host or cells: Sf21 insect cells, baculovirus (gift from Borst); plasma membrane vesicles
T2 sequence (Q9UNQ0 1-655): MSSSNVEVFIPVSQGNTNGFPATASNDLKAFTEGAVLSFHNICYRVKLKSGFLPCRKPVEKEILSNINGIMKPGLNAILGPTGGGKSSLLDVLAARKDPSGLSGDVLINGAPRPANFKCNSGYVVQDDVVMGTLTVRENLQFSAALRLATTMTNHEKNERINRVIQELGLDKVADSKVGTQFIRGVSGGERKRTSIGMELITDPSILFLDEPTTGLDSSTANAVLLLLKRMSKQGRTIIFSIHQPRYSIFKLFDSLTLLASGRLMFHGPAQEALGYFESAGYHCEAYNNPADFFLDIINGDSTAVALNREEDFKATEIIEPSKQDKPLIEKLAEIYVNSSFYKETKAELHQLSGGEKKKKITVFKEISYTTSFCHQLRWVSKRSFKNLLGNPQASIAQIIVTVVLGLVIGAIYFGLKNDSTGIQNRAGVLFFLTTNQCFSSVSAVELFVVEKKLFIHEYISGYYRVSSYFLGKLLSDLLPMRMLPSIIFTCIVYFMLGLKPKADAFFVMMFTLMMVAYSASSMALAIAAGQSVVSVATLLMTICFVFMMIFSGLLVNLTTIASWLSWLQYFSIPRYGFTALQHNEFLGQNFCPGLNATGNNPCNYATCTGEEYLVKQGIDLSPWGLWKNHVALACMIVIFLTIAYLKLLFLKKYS
Method: as §1, §2

Abcc2 and Abcc3 = test: Plasma clearance of CLF in wild type, Abcc2-/- and Abcc3-/- mice; assay type: in vivo; settings: single injection of 100 μL 2 mmol/L CLF in the tail vein
Method: Wild type, Abcc3^−/− and Abcc2^−/− mice received 100 μL of 2 mmol/L CLF by injection in the tail vein. After the indicated time points blood was drawn. Data are expressed as the mean percentage of the initial CLF level at 2 minutes. Significance was tested using two-sided Student's t-test: *P<0.05 for Abcc2−/− vs wild type mice.
Abcc2^−/− mice (against a Friend virus B-type (FVB) background) were bred at the National Cancer Institute (Amsterdam, The Netherlands). Production and characterization of the Abcc2^−/− mice was as described by Vlaming et al. [J Pharmacol Exp Ther 2006 July; 318(1):319-327]. Wild type and Abcc3^−/− mice (against an FVB background) were bred at the animal institute of the Academic Medical Center. Production and characterization of the Abcc3^−/− mice was as described by Zelcer et al. [J Hepatol 2006 April; 44(4):768-775].
Male mice were housed in a pathogen-free animal facility on a 12 hours light-dark cycle. Mice were anesthetized with a combination of Hypnorm (VetaPharma, UK; 11.8 mg/kg fluanisone and 0.37 mg/kg fentanyl-citrate) and diazepam (Centrafarm, Etten-Leur, The Netherlands; 5.9 mg/kg valium). Body temperature was maintained at 36±1° C. on thermostatted heating pads. […] Blood samples were deproteinised by addition of two volumes methanol and the amount CLF in the supernatant was quantitated by measurement of fluorescence as described above.

CC(CCC(=O)NC(CCCCNC(=S)Nc1ccc(-c2c3ccc(=O)cc-3oc3cc(O)ccc23)c(C(=O)O)c1)C(=O)O)C1CCC2C3C(O)CC4CC(O)CCC4(C)C3CC(O)C12C (centres unmarked) [CLF, cholyl lysyl fluorescein]
ATP-dependent uptake of CLF in control vesicles [1]: slight ATP-dependent uptake | IC50 (ABCB11): ~10 µM | ATP-dependent transport of CLF in ABCG2 containing membrane vesicles (ABCG2): not higher than in control vesicles | Plasma clearance of CLF in Abcc2-/- mice in comparison with wild type mice (Abcc2 and Abcc3): strongly impaired | Plasma clearance of CLF in Abcc3-/- mice in comparison with wild type mice (Abcc2 and Abcc3): not affected

From US8318504B2, “MRP2 efflux pathway prognostic method” (priority 2009, dated 2012)
